Experimental findings from PubChem BioAssay AID2327 (Broad Institute, 2010) are described below.

Broadly, the EC50 is the concentration giving half of the maximal effect.

Records with an inconclusive call do not appear. Calls of active or inactive are those of the source.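 Rule for the calls: active = compound whose fitted EC50 for lowering fibroblast viability lies at most a set limit above the top dose tested; inconclusive = flat fit with 30 to 70% activity, or poor fit; inactive = the rest.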

For the assay, the system named is NIH-3T3 fibroblast viability, Alamar Blue, 48 h, fluconazole. The assay is described as follows: NIH-3T3 fibroblast cytotoxicity, dose response, cytotoxicity control, cell-based, fluorescence, Alamar Blue, secondary assay (AID 2327). A general note: Alamar Blue is a resazurin reagent that responds to reducing activity.

On to `CC1CCC(C(C)C)C(OC(=O)Cn2c(-c3ccc(Br)cc3)[n+](C)c3ccccc32)C1` (configuration not stated), for which the EC50 is > 16 µM (inactive).
For `O=C1/C(=C/c2cccnc2)SC(=S)N1C1CCS(=O)(=O)C1` (configuration not stated) the value was > 15 µM (inactive); for `CC1CCC(C(C)C)C(OC(=O)C[n+]2cc(-c3ccc(Cl)cc3)n3c2CCCCC3)C1` (configuration not stated), > 16 µM (inactive).
The result for `NC(=NCCCCCCN=C(N)/N=C(\N)Nc1ccc(Cl)cc1)/N=C(\N)Nc1ccc(Cl)cc1` reads > 16 µM (inactive); that for `O=C1/C(=C\c2cccnc2)SC(=S)N1C1CCS(=O)(=O)C1` (configuration not stated), > 16 µM (inactive).
The result for `C[C@]12CC[C@H](O)C[C@@H]1CC[C@@H]1[C@@H]2CC[C@]2(C)C(=O)CC[C@@H]12` reads > 16 µM (inactive).
`C[C@]12CCC3[C@@H](CC[C@H]4C[C@@H](O)CC[C@]34C)C1CCC2=O` (some centres not stated): the EC50 is > 15 µM (inactive).
